Laboratory results as given in US12668600B2 (Kumquat Biosciences Inc., priority 2023, dated 2026).

target: T1, KRAS G12D (Homo sapiens, UniProt P01116, G12D); experiment: HTRF KRAS-SOS1 interaction assay, KRAS G12D; format: biochemical; conditions: binned ≤2 μM / >2 μM, read-out: Inhibition of KRAS G12D (IC50)
T1 construct: made in house; host or cells: E. coli, e.g. BL21 (DE3)
Excerpt: This assay can be also used to assess a selective inhibition or reduction of signaling output of a mutant Ras protein relative to a wildtype, or relative to a different mutant Ras protein. For example, the equilibrium interaction of wildtype KRAS or K-Ras mutant (e.g., wildtype or a mutant thereof) with SOS1 (e.g., hSOS1) can be assessed as a proxy or an indication for the ability of a subject compound to bind and inhibit Ras protein. The HTRF assay detects from (i) a fluorescence resonance energy transfer (FRET) donor (e.g., antiGST-Europium) that is bound to GST-tagged K-Ras mutant to (ii) a FRET acceptor (e.g., anti-6His-XL665) bound to a His-tagged hSOS1.
The assay buffer can contain ˜5 mM HEPES pH 7.4, ˜150 mM NaCl, ˜1 mM DTT, 0.05% BSA and 0.0025% (v/v) Igepal. A Ras working solution is prepared in an assay buffer containing typically a suitable amount of the protein construct (e.g., GST-tagged K-Ras mutant) and the FRET donor (e.g., antiGST-Eu (K) from Cisbio, France). A SOS1 working solution is prepared in an assay buffer containing suitable amount of the protein construct (e.g., His-hSOS1) and the FRET acceptor (e.g., anti-6His-XL665 from Cisbio, France). A suitable amount of the protein construct will depend on the range of activity or range of IC50 values being detected or under investigation. For detecting an IC50 within a range of 500 nM, the protein constructs of the same range of molarity can be utilized.
A fixed volume of DMSO with or without test compound is transferred into a 384-well plate. Ras working solution is added to all wells of the test plate. SOS1 working solution is added to all wells except for those that are subsequently filled with inhibitor control solution. Upon incubation for about 10 minutes or longer, the fluorescence is measured with a M1000Pro plate reader (Tecan) using HTRF detection (excitation 337 nm, emission 1:620 nm, emission 2:665 nm). Compounds are tested in duplicate at different concentrations (for example, 10 μM, 2.5 μM, 0.63 μM, 0.16 μM, 0.04 μM, 0.01 μM test compound). The ratiometric data (i.e., emission 2 divided by emission 1) is used to calculate IC50 values against Ras using GraphPad Prism (GraphPad software). Signaling output measured in terms of IC50 values can be obtained and a ratio of IC50 against one mutant relative to another mutant can be calculated.

T1 sequence (P01116 1-188 isoform P01116-2 G12D): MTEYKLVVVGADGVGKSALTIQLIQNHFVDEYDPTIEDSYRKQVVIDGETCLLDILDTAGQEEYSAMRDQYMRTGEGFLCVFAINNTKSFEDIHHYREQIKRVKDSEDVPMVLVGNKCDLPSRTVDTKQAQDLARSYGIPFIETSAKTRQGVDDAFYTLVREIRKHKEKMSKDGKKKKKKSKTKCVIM

Row | SMILES | IC50 [nM]
1 | C[C@H](c1cccnc1N)N1CCOc2c(Cl)c(-c3ccc(F)c4sc(N)c(C#N)c34)c(F)c3nc(OCC45CCCN4C[C@H](OCCCP(C)(C)=O)C5)nc1c23 (single isomer, unassigned) [Compound 857] | ≤ 2000
2 | Cc1cnc(N)c([C@@H](C)N2CCOc3c(C(F)(F)F)c(-c4ccc(F)c5sc(N)c(C#N)c45)c(F)c4nc(OC[C@@]56CCCN5C[C@H](F)C6)nc2c34)n1 (single isomer, unassigned) [Compound 767] | ≤ 2000
3 | C[C@@H]1CN(CC2(COc3nc4c5c(c(C(F)(F)F)c(-c6ccc(F)c7sc(N)c(C#N)c67)c(F)c5n3)OCCN4[C@H](C)c3cccnc3N)CC2)C[C@H](C)O1 [Compound 886, 2-amino-4-(4-((R)-1-(2-aminopyridin-3-yl)ethyl)-2-((1-(((2S,6R)-2,6-dimethylmorpholino)methyl)cyclopropyl)methoxy)-10-fluoro-8-(trifluoromethyl)-5,6-dihydro-4H-[1,4]oxazepino[5,6,7-de]quinazolin-9-yl)-7-fluorobenzo[b]thiophene-3-carbonitrile] | ≤ 2000
4 | CCO/N=C1\CN2CCC[C@@]2(COc2nc3c4c(c(Cl)c(-c5ccc(F)c6sc(N)c(C#N)c56)c(F)c4n2)OCCN3[C@H](C)c2cccnc2N)C1 (single isomer, unassigned) [Compound 865] | ≤ 2000
5 | C[C@H]1CN([C@@H](c2cccnc2N)C(F)F)c2nc(OC[C@@]34CCCN3C[C@H](F)C4)nc3c(F)c(-c4ccc(F)c5sc(N)c(C#N)c45)c(C(F)(F)F)c(c23)O1 (single isomer, unassigned) [Compound 889] | ≤ 2000
6 | C[C@H](c1cccnc1N)N1CCOc2c(Cl)c(-c3ccc(F)c4sc(N)c(C#N)c34)c(F)c3nc(OCC4(CN(C)C)CC4)nc1c23 (single isomer, unassigned) [Compound 771] | ≤ 2000
7 | N#Cc1c(N)sc2c(F)ccc(-c3c(C(F)(F)F)c4c5c(nc(OC[C@@]67CCCN6C[C@H](F)C7)nc5c3F)N([C@H](CCC3CCOCC3)c3cccnc3N)CCO4)c12 (single isomer, unassigned) [Compound 696] | ≤ 2000
8 | N#Cc1c(N)sc2c(F)ccc(-c3c(Cl)c4c5c(nc(OC[C@@]67CCCN6C[C@H](F)C7)nc5c3F)N(C(C=C(F)F)c3cccnc3N)CCO4)c12 (single isomer, unassigned) [Compound 712] | ≤ 2000
9 | N#Cc1c(N)sc2c(F)ccc(-c3c(Cl)c4c5c(nc(OC[C@@]67CCCN6C[C@H](F)C7)nc5c3F)N(C(/C=C\C(F)(F)F)c3cccnc3N)CCO4)c12 (single isomer, unassigned) [Compound 872] | ≤ 2000
10 | C=Cc1c(-c2ccc(F)c3sc(N)c(C#N)c23)c(F)c2nc(OC[C@@]34CCCN3C[C@H](F)C4)nc3c2c1OCCN3[C@H](C)c1cccnc1N (single isomer, unassigned) [Compound 787] | ≤ 2000
11 | CP(C)(=O)CC[C@H](c1cccnc1N)N1CCOc2c(C(F)(F)F)c(-c3ccc(F)c4sc(N)c(C#N)c34)c(F)c3nc(OC[C@@]45CCCN4C[C@H](F)C5)nc1c23 (single isomer, unassigned) [Compound 891] | ≤ 2000
12 | N#Cc1c(N)sc2c(F)ccc(-c3c(C(F)(F)F)c4c5c(nc(OC[C@@]67CCCN6C[C@H](F)C7)nc5c3F)N([C@H](CCC3CC(F)(F)C3)c3cccnc3N)CCO4)c12 (single isomer, unassigned) [Compound 724] | ≤ 2000
13 | CN(C)CC[C@H](c1cccnc1N)N1CCOc2c(C(F)(F)F)c(-c3ccc(F)c4sc(N)c(C#N)c34)c(F)c3nc(OC[C@@]45CCCN4C[C@H](F)C5)nc1c23 (single isomer, unassigned) [Compound 758] | ≤ 2000
14 | C[C@H](c1cccnc1N)N1CCOc2c(C(F)(F)F)c(-c3ccc(F)c4sc(N)c(C#N)c34)c(F)c3nc(OC[C@@]45CCCN4CC(C#N)C5)nc1c23 (single isomer, unassigned) [Compound 754] | ≤ 2000
15 | C[C@H](c1cccnc1N)N1CCOc2c(Cl)c(-c3cccc4sc(N)c(C#N)c34)c(F)c3nc(OC[C@@]45CCCN4CC(=C(F)F)C5)nc1c23 (single isomer, unassigned) [Compound 688] | ≤ 2000
16 | N#Cc1c(N)sc2c(F)ccc(-c3c(C(F)(F)F)c4c5c(nc(OC[C@@]67CCCN6C[C@H](F)C7)nc5c3F)N([C@H](CCN3CCOCC3)c3cccnc3N)CCO4)c12 (single isomer, unassigned) [Compound 735] | ≤ 2000
17 | C#C[C@H]1COc2c(Cl)c(-c3ccc(F)c4sc(N)c(C#N)c34)c(F)c3nc(OC[C@@]45CCCN4C[C@H](F)C5)nc(c23)N1C(C)c1cccnc1N (single isomer, unassigned) [Compound 729] | ≤ 2000
18 | C[C@H](c1cccnc1N)N1CCOc2c(C(F)(F)F)c(-c3cccc4sc(N)c(C#N)c34)c(F)c3nc(OC[C@@]45CCCN4C[C@H](F)C5)nc1c23 (single isomer, unassigned) [Compound 791] | ≤ 2000
19 | CS(=O)(=O)CCC[C@H](c1cccnc1N)N1CCOc2c(C(F)(F)F)c(-c3ccc(F)c4sc(N)c(C#N)c34)c(F)c3nc(OC[C@@]45CCCN4C[C@H](F)C5)nc1c23 (single isomer, unassigned) [Compound 805] | ≤ 2000
20 | N#Cc1c(N)sc2c(F)ccc(-c3c(C(F)(F)F)c4c5c(nc(OC[C@@]67CCCN6C[C@H](F)C7)nc5c3F)N([C@@H](c3cccnc3N)C(F)F)CCO4)c12 (single isomer, unassigned) [Compound 804] | ≤ 2000
21 | N#Cc1c(N)sc2c(F)ccc(-c3c(Cl)c4c5c(nc(OC[C@@]67CCCN6C[C@H](F)C7)nc5c3F)N(C(CC(F)F)c3cccnc3N)CCO4)c12 (mixture of isomers) [Compound 776, 2-amino-4-(4-(1-(2-aminopyridin-3-yl)-3,3-difluoropropyl)-8-chloro-10-fluoro-2-(((2R,7aS)-2-fluorotetrahydro-1H-pyrrolizin-7a(5H)-yl)methoxy)-5,6-dihydro-4H-[1,4]oxazepino[5,6,7-de]quinazolin-9-yl)-7-fluorobenzo[b]thiophene-3-carbonitrile] | ≤ 2000
22 | C[C@H](c1ccc(F)nc1N)N1CCOc2c(C(F)(F)F)c(-c3ccc(F)c4sc(N)c(C#N)c34)c(F)c3nc(OC[C@@]45CCCN4C[C@H](F)C5)nc1c23 (single isomer, unassigned) [Compound 726] | ≤ 2000
23 | CC(c1cccnc1N)N1c2nc(OC[C@@]34CCCN3C[C@H](F)C4)nc3c(F)c(-c4ccc(F)c5sc(N)c(C#N)c45)c(Cl)c(c23)OC[C@@H]1CC#N (mixture of isomers) [Compound 716, 2-amino-4-((5S)-4-(1-(2-aminopyridin-3-yl)ethyl)-8-chloro-5-(cyanomethyl)-10-fluoro-2-(((2R,7aS)-2-fluorotetrahydro-1H-pyrrolizin-7a(5H)-yl)methoxy)-5,6-dihydro-4H-[1,4]oxazepino[5,6,7-de]quinazolin-9-yl)-7-fluorobenzo[b]thiophene-3-carbonitrile] | ≤ 2000
24 | CC(c1cncnc1N)N1CCOc2c(Cl)c(-c3ccc(F)c4sc(N)c(C#N)c34)c(F)c3nc(OC[C@@]45CCCN4C[C@H](F)C5)nc1c23 (single isomer, unassigned) [Compound 699] | ≤ 2000
